Three compounds from patent US12479847B2 (DANA-FARBER CANCER INSTITUTE, INC., priority 2019, dated 2025) can be followed below.

Holding throughout (test): KINOMEscan (ScanMAX) kinase profiling
Common to all, as to type: binding

The target of test [1] is T1, panel of 468 kinases (Homo sapiens, UniProt Q14289).
T1 construct: purchased KINOMEscan (ScanMAX) service
As to conditions: PYK2; 1 μM; read-out: % control.

Test [2] deals with T2, panel of 468 kinases (Homo sapiens, UniProt O15197).
T2 construct: purchased KINOMEscan (ScanMAX) service
T2 sequence (O15197 32-1021): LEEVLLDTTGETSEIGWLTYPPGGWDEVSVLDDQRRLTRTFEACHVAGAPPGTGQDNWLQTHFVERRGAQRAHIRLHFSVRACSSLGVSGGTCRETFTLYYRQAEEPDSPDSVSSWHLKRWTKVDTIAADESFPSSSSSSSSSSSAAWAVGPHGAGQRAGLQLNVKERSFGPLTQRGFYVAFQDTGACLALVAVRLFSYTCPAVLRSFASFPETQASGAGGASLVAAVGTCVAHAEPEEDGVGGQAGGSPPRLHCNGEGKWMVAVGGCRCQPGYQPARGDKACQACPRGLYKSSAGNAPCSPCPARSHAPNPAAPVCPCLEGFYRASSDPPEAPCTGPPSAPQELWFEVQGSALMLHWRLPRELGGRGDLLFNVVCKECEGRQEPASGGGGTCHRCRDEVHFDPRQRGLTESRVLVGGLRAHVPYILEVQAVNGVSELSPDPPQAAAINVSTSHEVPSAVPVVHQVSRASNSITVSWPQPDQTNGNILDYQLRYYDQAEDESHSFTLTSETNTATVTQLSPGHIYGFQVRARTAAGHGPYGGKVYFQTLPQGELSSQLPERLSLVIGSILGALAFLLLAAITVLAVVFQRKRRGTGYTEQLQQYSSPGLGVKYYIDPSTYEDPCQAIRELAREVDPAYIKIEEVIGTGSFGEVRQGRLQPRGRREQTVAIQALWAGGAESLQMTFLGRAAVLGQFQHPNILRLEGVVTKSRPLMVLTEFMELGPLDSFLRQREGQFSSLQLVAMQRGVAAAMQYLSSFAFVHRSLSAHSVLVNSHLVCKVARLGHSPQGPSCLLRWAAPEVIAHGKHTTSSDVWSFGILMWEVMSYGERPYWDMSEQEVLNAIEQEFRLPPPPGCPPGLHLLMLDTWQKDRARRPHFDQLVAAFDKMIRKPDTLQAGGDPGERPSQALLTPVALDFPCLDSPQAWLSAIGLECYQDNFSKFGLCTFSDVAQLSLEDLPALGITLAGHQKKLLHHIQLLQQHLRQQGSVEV
The conditions noted are these: EPHB6; 1 μM; read-out: % control.

Test [3] concerns the target T3, panel of 468 kinases (Homo sapiens, UniProt Q8TDC3).
T3 construct: purchased KINOMEscan (ScanMAX) service
T3 sequence (Q8TDC3 1-778): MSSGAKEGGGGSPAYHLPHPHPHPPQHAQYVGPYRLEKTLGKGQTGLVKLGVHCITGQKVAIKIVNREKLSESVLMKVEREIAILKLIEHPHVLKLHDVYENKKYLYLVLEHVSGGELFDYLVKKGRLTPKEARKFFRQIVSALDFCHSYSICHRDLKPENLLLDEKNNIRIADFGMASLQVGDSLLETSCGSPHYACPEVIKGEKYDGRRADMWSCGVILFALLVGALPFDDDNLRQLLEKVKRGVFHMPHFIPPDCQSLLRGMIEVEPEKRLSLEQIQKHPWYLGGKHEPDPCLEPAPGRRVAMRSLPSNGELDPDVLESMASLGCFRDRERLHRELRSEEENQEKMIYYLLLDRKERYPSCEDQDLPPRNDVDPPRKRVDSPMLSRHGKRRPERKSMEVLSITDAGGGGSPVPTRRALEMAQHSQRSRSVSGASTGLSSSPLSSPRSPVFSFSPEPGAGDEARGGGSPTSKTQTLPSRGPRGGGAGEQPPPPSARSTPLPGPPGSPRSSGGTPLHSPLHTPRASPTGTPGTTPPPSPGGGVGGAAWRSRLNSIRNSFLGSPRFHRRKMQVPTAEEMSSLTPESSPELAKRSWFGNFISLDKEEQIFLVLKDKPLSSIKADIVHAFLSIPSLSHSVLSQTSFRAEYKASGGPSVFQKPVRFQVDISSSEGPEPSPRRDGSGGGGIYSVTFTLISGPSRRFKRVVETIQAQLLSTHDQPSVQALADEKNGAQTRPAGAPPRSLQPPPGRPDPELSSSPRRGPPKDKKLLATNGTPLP
The conditions noted are these: BRSK1; 1 μM; read-out: % control.

Test [4] concerns the target T4, panel of 468 kinases (Homo sapiens, UniProt Q8N752).
T4 construct: purchased KINOMEscan (ScanMAX) service
T4 sequence (Q8N752 1-337): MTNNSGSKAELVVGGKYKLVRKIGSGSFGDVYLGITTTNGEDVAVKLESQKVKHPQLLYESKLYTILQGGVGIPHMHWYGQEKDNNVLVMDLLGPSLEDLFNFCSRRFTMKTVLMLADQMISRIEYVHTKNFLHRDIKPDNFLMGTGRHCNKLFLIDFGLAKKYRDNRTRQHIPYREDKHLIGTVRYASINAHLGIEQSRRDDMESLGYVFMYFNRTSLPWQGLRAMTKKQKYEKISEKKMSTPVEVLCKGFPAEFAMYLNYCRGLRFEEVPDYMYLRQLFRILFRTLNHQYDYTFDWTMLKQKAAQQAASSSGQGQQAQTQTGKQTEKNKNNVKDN
The conditions noted are these: CSNK1A1L; 1 μM; read-out: % control.

Structures are written as SMILES.

T1 sequence (Q14289 whole entry): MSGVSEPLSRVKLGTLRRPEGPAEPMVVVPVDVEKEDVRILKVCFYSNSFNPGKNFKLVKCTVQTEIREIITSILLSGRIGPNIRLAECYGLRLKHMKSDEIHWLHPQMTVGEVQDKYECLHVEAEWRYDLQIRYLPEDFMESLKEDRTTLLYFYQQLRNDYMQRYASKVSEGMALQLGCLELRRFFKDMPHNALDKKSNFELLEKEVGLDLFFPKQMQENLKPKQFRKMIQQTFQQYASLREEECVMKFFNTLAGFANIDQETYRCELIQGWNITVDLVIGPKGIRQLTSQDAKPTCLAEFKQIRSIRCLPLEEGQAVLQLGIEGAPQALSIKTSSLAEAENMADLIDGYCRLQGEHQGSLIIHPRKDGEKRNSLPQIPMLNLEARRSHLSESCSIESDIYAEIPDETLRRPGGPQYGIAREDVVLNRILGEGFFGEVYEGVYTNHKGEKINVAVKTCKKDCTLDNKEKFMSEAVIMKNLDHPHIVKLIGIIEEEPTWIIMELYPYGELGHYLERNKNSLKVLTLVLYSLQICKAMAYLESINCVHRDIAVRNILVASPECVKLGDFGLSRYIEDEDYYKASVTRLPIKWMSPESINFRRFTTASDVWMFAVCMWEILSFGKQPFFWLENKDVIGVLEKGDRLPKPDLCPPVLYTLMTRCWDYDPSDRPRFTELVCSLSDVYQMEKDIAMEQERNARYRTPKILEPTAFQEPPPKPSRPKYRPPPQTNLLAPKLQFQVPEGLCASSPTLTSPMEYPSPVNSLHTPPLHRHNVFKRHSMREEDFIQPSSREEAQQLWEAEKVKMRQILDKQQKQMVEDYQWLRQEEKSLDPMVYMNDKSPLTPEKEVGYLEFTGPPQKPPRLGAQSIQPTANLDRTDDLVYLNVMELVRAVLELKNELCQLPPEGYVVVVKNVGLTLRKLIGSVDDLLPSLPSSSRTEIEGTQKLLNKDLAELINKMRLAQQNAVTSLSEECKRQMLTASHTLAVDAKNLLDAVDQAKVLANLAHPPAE

For `CNc1nc(Nc2ccc(S(=O)(=O)N3CCC(N4CCOCC4)CC3)cc2OC)nc2[nH]cc(Cl)c12` [Compound 12, 5-chloro-N2-(2-methoxy-4-((4-morpholinopiperidin-1-yl)sulfonyl)phenyl)-N4-methyl-7H-pyrrolo[2,3-d]pyrimidine-2,4-diamine], the remaining binding at 1 µM in test [1] came out at 35%; in test [2] it was 51%; in test [3], 100%; in test [4], 56%.
With `CNc1nc(Nc2ccc(C(=O)N3CCC(N4CCOCC4)CC3)c3c2OCO3)nc2[nH]cc(Cl)c12` [Compound 75, (7-((5-chloro-4-(methylamino)-7H-pyrrolo[2,3-d]pyrimidin-2-yl)amino)benzo[d][1,3]dioxol-4-yl)(4-morpholinopiperidin-1-yl)methanone], the remaining binding at 1 µM was found to be 40% in test [1], 51% in test [2], 100% in test [3] and 70% in test [4].
In the case of `CNc1nc(Nc2ccc(P3(=O)CCN(C4CCOCC4)CC3)cc2OC)nc2[nH]cc(Cl)c12` [Compound 77, 4-(4-((5-chloro-4-(methylamino)-7H-pyrrolo[2,3-d]pyrimidin-2-yl)amino)-3-methoxyphenyl)-1-(tetrahydro-2H-pyran-4-yl)-1,4-azaphosphinane 4-oxide], the remaining binding at 1 µM is 27% in test [1], 49% in test [2], 96% in test [3] and 36% in test [4].
